Patent US9233143B2, “Medicinal agent for preventing exacerbation of malignant tumor, comprising combination of natriuretic peptide receptor GC-A and GC-B agonists” (National Cerebral and Cardiovascular Center, priority 2011, dated 2016)

What was measured:
[1] = tested on: A549 cells; assay: Changes in the intracellular cGMP level in response to natriuretic peptide stimulus, A549 cells; format: cell-based, human; settings: 1×10^−11 M to 1×10^−6 M, 10 minutes, FIG. 1A
Description: Lung adenocarcinoma cell line, A549 cells, was obtained from ATCC (Manassas, Va.). The cells were cultured in DMEM culture medium (Invitrogen, Carlsbad, Va.) containing 10% FCS under 5% CO2 at 37° C. The amounts of the culture medium were 1.5 mL for each well of a 6-well dish, 400 μL for each well of a 24-well dish, and 150 μL for each well of a 96-well dish. In the Examples below, unless otherwise stated, the same culture medium and culture conditions were adopted.
The A549 cells were cultured in a 24-well dish at 4×10^4 cells/well, and the culture medium was replaced with DMEM culture medium free from FCS the next day. The CAFs were cultured in a 24-well dish at 1×10^4 cells/well, and the culture medium was replaced with DMEM culture medium containing 1% FCS the next day.
To these culture media, solutions of hANP, hBNP, and hCNP-22 (final concentration: ten-fold serial dilution from 1×10^−11 M to 1×10^−6 M, the same amount of physiological saline was used as a control) were separately added. After 10 minutes had passed, 400 μL of cooled 70% ethanol (containing 0.1 N hydrochloric acid) was added, and ultrasonication was performed for a short time. The treated solution was lyophilized, and the cGMP level was measured using Cyclic GMP Assay kit (made by Yamasa Corp.).

[2] = tested on: A549 cells; assay: EMT induced by TGF-β1 in A549 cells (morphology, quantitative RT-PCR); format: cell-based, human
Description: Using a 6-well dish, the A549 cells were cultured at 1×10^5 cells/well, and the culture medium was replaced with DMEM culture medium free from FBS the next day. After 24 hours of culture, the cells were used in the following experiment.
An ANP group (a hANP solution was added (final concentration: 1 μM)) and a control group (the same amount of physiological saline was added) were prepared, and after 2 hours from the addition (of the hANP solution or the physiological saline) to the A549 cells, TGF-β1 was added so that the final concentration would be 0.125, 0.25, 0.5, 1.0, and 2.0 ng/mL. After 24 hours had passed, the morphological change in the cells was observed under a microscope and photographed (FIG. 2).
Then, total RNA was recovered from the above prepared ANP group and control group using TRIZOL total RNA isolation reagent (made by Invitrogen), cDNA was synthesized using reverse transcriptase, and the mRNA levels of E-cadherin, N-cadherin, VEGF-A, PDGF-B, TNF-α, and IL-6 were measured by quantitative RT-PCR. The mRNA level of each intended gene was calculated as the relative ratio of the mRNA amount of the gene to that of the housekeeping gene 36B4 measured at the same time. In the Examples below, unless otherwise stated, the mRNA levels were obtained through the same calculation.
It is known that in EMT, the expression of E-cadherin decreases while the expression of N-cadherin increases. The expression ratio of the two kinds of cadherin (N-cad/E-cad) is considered to be useful as an indicator of the degree of EMT.

[3] = tested on: CAFs; assay: Production of cancer exacerbation factors by CAFs under TGF-β1 stimulus (quantitative RT-PCR); format: cell-based, human; settings: test substance 1 μM, TGF-β1 0.125-2.0 ng/mL, 24 hours, mRNA level, FIG. 5
Description: Using a 6-well dish, the CAFs were cultured at 5×10^4 cells/well, and the culture medium was replaced with DMEM culture medium containing 1% FBS the next day. After 24 hours of culture, the cells were used in the following experiment.
A CNP group (a hCNP-22 solution was added (final concentration: 1 μM)) and a control group (the same amount of physiological saline was added) were prepared, and after 2 hours from the addition (of the hCNP-22 solution or the physiological saline) to the CAFs, TGF-β1 was added so that the final concentration would be 0.125, 0.25, 0.5, 1.0, and 2.0 ng/mL. After 24 hours had passed, total RNA was recovered using TRIZOL total RNA isolation reagent, cDNA was synthesized using reverse transcriptase, and the mRNA levels of VEGF-A, TGF-β1, TNF-α, and IL-6 were measured by quantitative RT-PCR.

[4] = tested on: tumor cells; settings: reports by Vesely et al.; cited from earlier work
[5] = tested on: A549 cells co-cultured with CAFs; assay: Co-culture system of cancer cells and CAFs (mRNA of the A549 cells); format: cell-based, human; settings: each test substance 1 μM
Description: In a 6-well dish, the A549 cells were cultured at 1×10^5 cells/well. The culture medium was replaced with DMEM culture medium free from FBS the next day, and the cells were further cultured for 24 hours. In a 6-well dish having a cell culture insert (1.0 μm pore size, made by BD), the CAFs were cultured at 5×10^4 cells/well. The culture medium was replaced with DMEM culture medium containing 1% FBS the next day, and the cells were further cultured for 24 hours. To each culture medium of the two kinds of cells, test substances were separately added to prepare test substance addition groups. Control groups with no test substance were also prepared. After two hours of culture, these were subjected to co-culture. The test substance addition groups were ANP groups containing hANP at a final concentration of 1 μM, CNP groups containing hCNP-22 at a final concentration of 1 μM, and ANP+CNP groups containing both hANP and hCNP-22 each at a final concentration of 1 μM. Each of the groups were prepared by adding the test substance to each culture medium of the two kinds of cells.
On the 6-well dish of A549 cells treated as above, the above cell culture insert with the CAFs was placed to prepare a co-culture experimental model where only the culture media could pass through the cell culture insert. After 24, 48, and 72 hours of culture, total RNA of the A549 cells only was recovered, cDNA was synthesized, and the mRNA levels of E-cadherin, N-cadherin, VEGF-A, PDGF-B, and IL-6 were measured by quantitative RT-PCR (FIGS. 6 to 8). The experiment using ANP alone (ANP groups: FIG. 6), the experiment using CNP alone (CNP groups: FIG. 7), and the experiment using ANP and CNP in combination (ANP+CNP group: FIG. 8) were independently conducted, where control groups were separately set for each experiment.

[6] = A549 cells, test substance 1 μM, mRNA level, FIG. 3

SMILES: CC[C@H](C)[C@@H]1NC(=O)[C@H](CCCNC(=N)N)NC(=O)[C@H](CC(=O)O)NC(=O)[C@H](CCSC)NC(=O)[C@H](CCCNC(=N)N)NC(=O)CNC(=O)CNC(=O)[C@H](Cc2ccccc2)NC(=O)[C@@H](NC(=O)[C@H](CO)NC(=O)[C@H](CO)NC(=O)[C@H](CCCNC(=N)N)NC(=O)[C@H](CCCNC(=N)N)NC(=O)[C@H](CC(C)C)NC(=O)[C@@H](N)CO)CSSC[C@@H](C(=O)N[C@@H](CC(N)=O)C(=O)N[C@@H](CO)C(=O)N[C@@H](Cc2ccccc2)C(=O)N[C@@H](CCCNC(=N)N)C(=O)N[C@@H](Cc2ccc(O)cc2)C(=O)O)NC(=O)CNC(=O)[C@H](CC(C)C)NC(=O)CNC(=O)[C@H](CO)NC(=O)[C@H](CCC(N)=O)NC(=O)[C@H](C)NC(=O)CNC1=O [hANP]
- intracellular cGMP level of the A549 cells [1]: increased the intracellular cGMP level of the A549 cells in a concentration-dependent manner
- expression ratio of N-cad/E-cad (indicator of EMT) ([2]; A549 cells, 1 μM hANP, TGF-β1 stimulus, FIG. 4): significantly decreased
- morphological change in the cells associated with EMT induced by the TGF-β1 stimulus ([2]; A549 cells, test substance 1 μM, 24 hours after TGF-β1, FIG. 2): significantly suppressed
- gene expression of the growth factors (VEGF-A, PDGF-B) and the inflammatory cytokines (TNF-α, IL-6) increased by EMT induced by the TGF-β1 stimulus ([2]; A549 cells, test substance 1 μM, TGF-β1 0.125-2.0 ng/mL, 24 hours, mRNA level, FIG. 3): significantly suppressed
- decrease in the expression of E-cadherin induced by the TGF-β1 stimulus [2, 6]: inhibited decrease
- increase in the expression of N-cadherin induced by the TGF-β1 stimulus [2, 6]: significantly suppressed increase
- effect of suppressing EMT ([2]; concentration of 1 μM, summary of Example 2): significantly suppressing EMT
- gene expression of the growth factors (VEGF-A, TGF-β1) and the inflammatory cytokines (TNF-α, IL-6) increased by the TGF-β1 stimulus in CAFs [3]: did not show any effect on CAFs
- growth-suppressing activity on tumor (cancer) cells [4]: growth-suppressing effect
- gene expression of the growth factors (VEGF-A, PDGF-B) and inflammatory cytokine (IL-6) increased in the co-culture ([5]; A549 cells co-cultured with CAFs 24, 48, 72 hours, FIGS. 6 to 8): could not suppress
- expression ratio of N-cadherin/E-cadherin (N-cad/E-cad), indicator of EMT, in the co-culture ([5]; A549 cells co-cultured with CAFs, FIGS. 6D, 7D, 8D): did not show any effect
